Where a name gives a salt, the structure may show the parent alone. Read-outs that look alike come from different tables or passages of the source. Peptide text beside a SMILES is read from it. * marks the point of attachment. Cbz = O=C(OCc1ccccc1)*; CH2F = FC*
System: PRKACA-PRKAR2A interaction (SmBiT-PRKACA / LgBiT-PRKAR2A), protein kinase A
Parameters: NanoLuc complementation counter-screen in cell extract, PRKACA with PRKAR2A, loss of luminescence, detects NanoLuc interference
Details: 0.5 h, 20 µM, inhibitor
[1] = counter-screen for NanoLuc interference
[2] = counter-screen for NanoLuc interference, Inh (PKA)

CCOc1cc(N)c(Cl)cc1C(=O)NCC1CN(Cc2ccc(F)cc2)CCO1 (stereo not drawn) [UM0141391:01, Mosapride Citrate]
Inh (PKA) [1]: 13.81%

C=CC[N+]1([C@H]2C[C@H]3[C@@H]4CC[C@H]5C[C@H](O)[C@@H](N6CCOCC6)C[C@]5(C)[C@H]4CC[C@]3(C)[C@H]2OC(C)=O)CCCC1 [UM0141392:01, Rocuronium Bromide]
Inh (PKA) [1]: 2.002%

COc1cc(N2CCC(N3CCN(C)CC3)CC2)ccc1Nc1ncc(Cl)c(Nc2ccccc2P(C)(C)=O)n1 [UM0141393:01, AP26113]
Inh (PKA) [1]: 6.926%

C[C@@H](O)[C@H]1C(=O)N2C(C(=O)[O-])=C(SC3Cn4cnc[n+]4C3)[C@H](C)[C@H]12 (stereo partly drawn) [UM0141395:01, Biapenem]
Inh (PKA) [1]: 2.946%

C=CC(=O)Nc1cccc(Oc2nc(Nc3ccc(N4CCN(C)CC4)cc3OC)ncc2Cl)c1 [UM0141397:01, WZ4002]
Inh (PKA) [1]: 30.48%

C=CC(=O)Nc1cccc(Sc2nc(Nc3ccc(N4CCN(C)CC4)cc3)ncc2Cl)c1 [UM0141398:01, WZ8040]
Inh (PKA) [1]: 37.33%

Nc1ccn([C@@H]2O[C@H](CO)[C@@H](O)C2(F)F)c(=O)n1 [UM0141399:01, Gemcitabine HCl]
Inh (PKA) [2]: 0.8082%

COc1ccc(S(=O)(=O)Nc2cccnc2Nc2ccc(O)cc2)cc1 [UM0141402:01, ABT-751 (E7010)]
Inh (PKA) [1]: 8.683%

C[C@@H](CN1CC(=O)NC(=O)C1)N1CC(=O)NC(=O)C1 [UM0141403:01, Dexrazoxane HCl (ICRF-187, ADR-529)]
Inh (PKA) [1]: 2.168%

O=C(N/N=C/c1ccc(O)c(O)c1)c1cc2ccccc2cc1O [UM0141404:01, Dynasore]
Inh (PKA) [1]: 24%

CC(=O)Oc1cc2c(s1)CCN(C(C(=O)C1CC1)c1ccccc1F)C2 (stereo not drawn) [UM0141405:01, Prasugrel]
Inh (PKA) [2]: 8.306%

Oc1ccc(-c2nc(-c3ccc(F)cc3)c(-c3ccncc3)[nH]2)cc1 [UM0141406:01, SB202190 (FHPI)]
Inh (PKA) [1]: 40.66%

CCNC(=O)Nc1ccc(-c2nc3c(c(N4CCOC[C@@H]4C)n2)CCN(C2COC2)C3)cc1 [UM0141407:01, GDC-0349]
Inh (PKA) [1]: 3.779%

C[C@]12C=CC(=O)N[C@@H]1CC[C@@H]1[C@@H]2CC[C@]2(C)[C@@H](C(=O)Nc3cc(C(F)(F)F)ccc3C(F)(F)F)CC[C@@H]12 [UM0141408:01, Dutasteride]
Inh (PKA) [1]: 7.996%

C[C@@H](O[C@H]1OCCN(Cc2n[nH]c(=O)[nH]2)[C@H]1c1ccc(F)cc1)c1cc(C(F)(F)F)cc(C(F)(F)F)c1 [UM0141409:01, Aprepitant]
Inh (PKA) [1]: 12.87%

O=C(O)CCc1ccc(NCc2cccc(Oc3ccccc3)c2)cc1 [UM0141410:01, GW9508]
Inh (PKA) [1]: 28.45%

CC[C@@H]([C@H](C)O)n1ncn(-c2ccc(N3CCN(c4ccc(OC[C@@H]5CO[C@@](Cn6cncn6)(c6ccc(F)cc6F)C5)cc4)CC3)cc2)c1=O [UM0141411:01, Posaconazole]
Inh (PKA) [1]: 3.84%

C[C@H](Nc1ncnc2nc[nH]c12)c1cc2cccc(Cl)c2c(=O)n1-c1ccccc1 [UM0141412:01, IPI-145 (INK1197)]
Inh (PKA) [1]: 8.901%

CC(C)OC(=O)OCOP(=O)(CO[C@H](C)Cn1cnc2c(N)ncnc21)OCOC(=O)OC(C)C [UM0141413:01, Tenofovir Disoproxil Fumarate]
Inh (PKA) [1]: 0.7211%

CCN1CCN(Cc2ccc(Nc3ncc(F)c(-c4cc(F)c5nc(C)n(C(C)C)c5c4)n3)nc2)CC1 [UM0141414:01, LY2835219]
Inh (PKA) [1]: 8.649%

CCOc1cc2ncc(C#N)c(Nc3ccc(F)c(Cl)c3)c2cc1NC(=O)/C=C/CN(C)C [UM0141415:01, Pelitinib (EKB-569)]
Inh (PKA) [1]: 20%

C=CC(=O)Nc1cc2c(Nc3ccc(F)c(Cl)c3)ncnc2cc1OCCCN1CCOCC1 [UM0141416:01, Canertinib (CI-1033)]
Inh (PKA) [1]: 5.945%

Oc1nc(-c2ccc(C(F)(F)F)cc2)nc2c1CSCC2 [UM0141417:01, XAV-939]
Inh (PKA) [1]: 15.47%

COc1cc2c(Oc3ccc4[nH]c(C)cc4c3F)ncnc2cc1OCCCN1CCCC1 [UM0141418:01, Cediranib (AZD217)]
Inh (PKA) [1]: 13.87%

COC(=O)C[C@H](NC(=O)[C@H](C)NC(=O)[C@@H](NC(=O)OCc1ccccc1)C(C)C)C(=O)CF [UM0141421:01, Z-VAD-FMK] (Cbz-Val-Ala-Asp(OMe)-CH2F)
Inh (PKA) [1]: 1.417%

COC(=O)CC(NC(=O)OC(C)(C)C)C(=O)CF [UM0141423:01, Boc-D-FMK]
Inh (PKA) [1]: 1.796%

Nc1nc(OCc2cc(Br)cs2)c2[nH]cnc2n1 [UM0141425:01, Lomeguatrib]
Inh (PKA) [1]: 7.16%

O=C(O)C(Cc1c[nH]c2ccccc12)N1C(=O)c2ccccc2C1=O (stereo not drawn) [UM0141426:01, RG 108]
Inh (PKA) [1]: 1.344%

COC(=O)CC[C@H](NC(=O)[C@H](CC(=O)OC)NC(=O)OCc1ccccc1)C(=O)N[C@H](C(=O)N[C@@H](CC(=O)OC)C(=O)CF)C(C)C [UM0141427:01, Z-DEVD-FMK]
Inh (PKA) [1]: 1.254%

COC(=O)C[C@H](NC(=O)[C@H](CCSC)NC(=O)[C@H](CCC(N)=O)NC(=O)[C@H](CC(=O)OC)NC(=O)OCc1ccccc1)C(=O)CF [UM0141428:01, Z-DQMD-FMK] (Cbz-D(OMe)QMD(OMe)-CH2F)
Inh (PKA) [1]: 1.642%

COC(=O)C[C@H](NC(=O)[C@H](C)NC(=O)[C@@H](NC(=O)[C@H](CC(=O)OC)NC(=O)[C@@H](NC(=O)OCc1ccccc1)C(C)C)C(C)C)C(=O)CF [UM0141429:01, Z-VDVAD-FMK] (Cbz-VD(OMe)VAD(OMe)-CH2F)
Inh (PKA) [1]: -0.4508%

CC[C@H](C)[C@H](NC(=O)[C@H](CCC(=O)OC)NC(=O)[C@@H](NC(=O)OCc1ccccc1)C(C)C)C(=O)N[C@@H](CC(=O)OC)C(=O)CF [UM0141430:01, Z-VEID-FMK] (Cbz-VE(OMe)ID(OMe)-CH2F)
Inh (PKA) [1]: -0.4163%

COC[C@@H]1CCCN1S(=O)(=O)c1ccc2c(c1)C(=O)C(=O)N2 [UM0141431:01, Caspase-3/7 Inhibitor I]
Inh (PKA) [1]: 2.243%

CCCNC(=O)[C@H]1O[C@@H]1C(=O)N[C@H](C(=O)N1CCC[C@H]1C(=O)O)[C@@H](C)CC [UM0141432:01, CA 074]
Inh (PKA) [1]: -0.2737%

CC(C)C[C@H](NC(=O)[C@H](CCc1ccccc1)NC(=O)CN1CCOCC1)C(=O)N[C@@H](Cc1ccccc1)C(=O)N[C@@H](CC(C)C)C(=O)[C@@]1(C)CO1 [UM0141433:01, Carfilzomib (PR-171)]
Inh (PKA) [1]: 0.3082%

COC[C@H](NC(=O)c1cnc(C)s1)C(=O)N[C@@H](COC)C(=O)N[C@@H](Cc1ccccc1)C(=O)[C@@]1(C)CO1 [UM0141434:01, Oprozomib (ONX-0912)]
Inh (PKA) [1]: -0.3511%

Cn1cnc2c(F)c(Nc3ccc(Br)cc3F)c(C(=O)NOCCO)cc21 [UM0141435:01, MEK162 (ARRY-162, ARRY-438162)]
Inh (PKA) [1]: 13.83%

CCN(CC)CCCC(C)Nc1nc(C)cc(Nc2ccc3nc(C)cc(N)c3c2)n1 (stereo not drawn) [UM0141436:01, NSC 23766]
Inh (PKA) [1]: 2.521%

COc1cc([C@@H]2c3cc4c(cc3[C@@H](O[C@@H]3O[C@@H]5CO[C@@H](C)O[C@H]5[C@H](O)[C@H]3O)[C@H]3COC(=O)[C@H]23)OCO4)cc(OC)c1O [UM0141437:01, Etoposide]
Inh (PKA) [1]: 1.839%

CC(C)(C)c1cnc(CSc2cnc(NC(=O)C3CCNCC3)s2)o1 [UM0141438:01, SNS-032 (BMS-387032)]
Inh (PKA) [1]: 4.184%

Cn1c(CCCC(=O)O)nc2cc(N(CCCl)CCCl)ccc21 [UM0141439:01, Bendamustine HCl]
Inh (PKA) [1]: -0.1879%

C=CC(=O)Nc1ccc2ncnc(Nc3cccc(Br)c3)c2c1 [UM0141440:01, PD168393]
Inh (PKA) [1]: 22.44%

Cc1ccccc1-n1c(Cn2cnc3c(N)ncnc32)nc2cccc(C)c2c1=O [UM0141441:01, IC-87114]
Inh (PKA) [1]: 5.733%

Cc1ccc([N+](=O)[O-])cc1S(=O)(=O)N(C)/N=C/c1cnc2ccc(Br)cn12 [UM0141442:01, PIK-75]
Inh (PKA) [1]: 46.51%

CN1CCN(CCOc2cc(OC3CCOCC3)c3c(Nc4c(Cl)ccc5c4OCO5)ncnc3c2)CC1 [UM0141443:01, Saracatinib (AZD0530)]
Inh (PKA) [1]: 2.374%

COc1cc(Nc2c(C#N)cnc3cc(OCCCN4CCN(C)CC4)c(OC)cc23)c(Cl)cc1Cl [UM0141444:01, Bosutinib (SKI-606)]
Inh (PKA) [1]: 20.21%

CC(=O)Nc1ccc(OC[C@](C)(O)C(=O)Nc2ccc([N+](=O)[O-])c(C(F)(F)F)c2)cc1 [UM0141445:01, Andarine]
Inh (PKA): 7.113%

CN1CCN(c2ccc3nc(-c4c(N)c5c(F)cccc5[nH]c4=O)[nH]c3c2)CC1 [UM0141446:01, Dovitinib (TKI-258, CHIR-258)]
Inh (PKA) [2]: 5.935%

O=C(NNc1nc2cc(F)ccc2n2cccc12)c1cnccn1 [UM0141448:01, SC 144]
Inh (PKA) [1]: 4.683%

O=[N+]([O-])c1ccc2c(c1)S(=O)(=O)C=C2 [UM0141450:01, Stattic]
Inh (PKA) [1]: 9.361%

Cc1cc(N2CCOCC2)cc2[nH]c(-c3c(NC[C@@H](O)c4cccc(Cl)c4)cc[nH]c3=O)nc12 [UM0141451:01, BMS-536924]
Inh (PKA) [1]: 41.39%

O=S(=O)(c1ccccc1)N(CC(F)(F)F)c1ccc(C(O)(C(F)(F)F)C(F)(F)F)cc1 [UM0141452:01, T0901317]
Inh (PKA) [1]: 30.09%

Nc1ncnc2c1c(-c1cccc(OCc3ccccc3)c1)cn2[C@H]1C[C@@H](CN2CCC2)C1 [UM0141453:01, NVP-AEW541]
Inh (PKA) [1]: 10.76%

Cc1[nH]c(/C=C2\C(=O)Nc3ccc(S(=O)(=O)Cc4c(Cl)cccc4Cl)cc32)c(C)c1C(=O)N1CCC[C@@H]1CN1CCCC1 [UM0141454:01, PHA-665752]
Inh (PKA) [1]: 72.78%

CNCc1cc(-c2ccccc2F)n(S(=O)(=O)c2cccnc2)c1 [UM0141455:01, TAK-438]
Inh (PKA) [1]: 1.837%

C[C@@H]1C[C@H]2[C@@H]3CCC4=CC(=O)C=C[C@]4(C)[C@@]3(F)[C@@H](O)C[C@]2(C)[C@@]1(O)C(=O)CO [UM0141456:01, Dexamethasone (DHAP)]
Inh (PKA) [1]: 0.4412%

COCC(=O)NC/C=C/c1ccc2ncnc(Nc3ccc(Oc4ccc(C)nc4)c(C)c3)c2c1 [UM0141457:01, CP-724714]
Inh (PKA) [1]: 30.01%
